This note sets out measurements from paper PMC10011573, “Development of novel broad-spectrum antimicrobial lipopeptides derived from plantaricin NC8 β” (Scientific Reports, 2023).

Read-outs that look alike come from different tables or passages of the source. Residues, ends and D or L forms follow the SMILES beside them. No end group written: not given here. *: point of attachment. Pentadecanoyl = CCCCCCCCCCCCCCC(=O)*; Decanoyl = CCCCCCCCCC(=O)*; Octanoyl = CCCCCCCC(=O)*; Butyryl = CCCC(=O)*

Assay [1] in a line: Carboxyfluorescein release assay, mammalian liposome model. The format is biochemical. Particulars: 65:5:30 POPC:POPS:Chol. liposomes, 25 µM lipid, 10 mM PBS pH 7.4, 10^–5–10^2 µM peptide, 60 min, fluorescence, Hill fit, n = 3; read-out: EC50 Mammalial (concentration that triggers 50% CF release). The method, then:
(§1) Liposomes were prepared by thin-film hydration method. Lipids stock solutions (10 mg/ml in chloroform, Avanti Polar Lipids, Inc., Alabaster, United States) of the lipids 1-palmitoyl-2-oleoyl-sn-glycero-3-phosphocholine (POPC), 1-palmitoyl-2-oleoyl-sn-glycero-3-phospho-L-serine (POPS), 1-Hexadecanoyl-2-(9Z-Octadecenoyl)-sn-Glycero-3-Phosphoglycerol (POPG) and Cholesterol (Chol) were employed. Bacterial liposomes were prepared with a 75:25 ratio of POPC:POPG and mammalian liposomes were prepared with a 65:5:30 ratio of POPC:POPS:Chol. Lipid solutions were thoroughly homogenised, and the solvent was evaporated with the use of a dry N2 steam to yield a lipid cake. […] The lipid film was subsequently hydrated with a 5(6)-CF solution (50 mM CF, 10 mM PBS, 90 mM NaCl, pH 7.4). Following a 10 min incubation on orbital shaker (50 min^−1), the solution was vortexed for 60 s on medium speed. A mini extruder (Avanti Polar Lipids, Inc., United States) was employed and 21 extrusions were performed through a 0.1 µm filter membrane (Nuclepore track-etched hydrophilic membrane, Cytiva, Whatman, MA, United States), resulting in monodispersed unilamellar liposomes. Directly before use the liposomes were purified from unencapsulated CF by filtration through a gel filtration column (PD Minitrap G-25 column, Cytiva, United States), against PBS buffer (10 mM, pH 7.4).
(§2) Peptide and lipopeptide activity towards liposome models were evaluated using a carboxyfluorescein (CF) release assay. Liposomes were diluted in PBS (10 mM, pH 7.4) to a final lipid concentration of 25 µM and incubated with peptides (10^–5–10^2 µM) in a 96-well plate (n = 3). CF release was monitored using an Infinite M1000 PRO plate reader every 2.5 min for 1 h. Full (100%) CF release was obtained by addition of 1% Triton X-100 solution followed by 10 min incubation. CF release percentage was evaluated according to the formula 100 * (F − F0)/(FT − F0), where F indicates the instantaneous fluorescence, FT the total fluorescence and F0 the background fluorescence prior to peptide addition. Data were fitted to a Hill-1 curve using MATLAB R2019a (The MathWorks Inc., Natick, Massachusetts, United States) and the half maximum effective concentration (EC50) was extracted.

The nature of assay [2]: Carboxyfluorescein release assay, bacterial liposome model. In kind it is biochemical. Particulars: for EC50: 75:25 POPC:POPG liposomes, 25 µM lipid, 10 mM PBS pH 7.4, 10^–5–10^2 µM peptide, 60 min, fluorescence, Hill fit, n = 3, read-out: EC50 Bacterial (concentration that triggers 50% CF release). The method, then:
as §1, §2

In assay [3] the test system is S. aureus (ATCC 29213, MSSA). The method, then: (§3) S. aureus (ATCC 29213, MSSA, ATCC, Manassas, VA), E. coli (K-12 MG1655) and clinical isolates of S. aureus, E. coli, E. faecium, K. pneumoniae, A. baumannii, P. aeruginosa and E. cloacae obtained from the Department of Laboratory Medicine at Örebro University Hospital were streaked on Luria–Bertani (LB) agar plates and incubated at 37 °C overnight. Single colonies were inoculated into 5 ml of LB broth and incubated on a shaker (400 rpm) at 37 °C overnight. The bacterial concentrations were determined by viable count and were adjusted to correlate with approximately 10^9 CFU/ml.
(§4) The broth microdilution method was used to determine minimal inhibitory concentration (MIC) and minimal bactericidal concentration (MBC), in accordance with the EUCAST standards for the broth microdilution method. Two-fold serial dilutions of the lipopeptides were used, and the final concentrations ranged from 0.19 to 100 µM. In brief, two-fold serial dilutions of the lipopeptides were performed in a 96-well plate in PBS, with a final volume of 100 µl per well, after which 100 µl of LB-broth media containing approximately 5 × 10^5 CFU/ml of bacteria was added to each well. The plate was then incubated for 20 h in 37 °C on a shaker (400 rpm). The effect of lipopeptide-antibiotic combinations was investigated by performing checkerboard assays. The assays were performed in accordance with the MIC and MBC tests conducted above, but with horizontal and longitudinal two-fold serial dilutions of the tested compounds. […] The fractional inhibitory concentration (FIC) and fractional bactericidal concentration (FBC) were calculated by the equation (MIC or MBC of peptide in combination/MIC or MBC of peptide alone) + (MIC or MBC of antibiotic in combination/MIC or MBC of antibiotic alone). Synergy was defined as FIC/FBC ≤ 0.5, additive when 0.5 < FIC/FBC ≤ 1, indifferent when 1 < FIC/FBC < 2 and antagonistic when FIC/FBC ≥ 2. All experiments were repeated at least three times.

Another assay has as its system E. coli (K-12 MG1655). As to the method: as §3, §4
Setting [4] is: Table 3, ATCC 29213, broth microdilution, 50:50 PBS/LB-broth, 200 µL, 20 h, 37 °C.
[5] abbreviates: Table 3, K-12 MG1655, broth microdilution, 50:50 PBS/LB-broth, 200 µL, 20 h, 37 °C.

As for `CCCC(=O)N[C@@H](CC(C)C)C(=O)NCC(=O)N[C@H](C(=O)N[C@@H](CCCCN)C(=O)N[C@H](C(=O)N[C@@H](CC(C)C)C(=O)N[C@@H](Cc1c[nH]c2ccccc12)C(=O)N[C@@H](CO)C(=O)N[C@@H](C)C(=O)N[C@@H](Cc1ccc(O)cc1)C(=O)N[C@@H](CCCCN)C(=O)N[C@@H](Cc1c[nH]cn1)C(=O)N[C@@H](CCCNC(=N)N)C(=O)N[C@@H](CCCCN)C(=O)N[C@H](C(=O)N[C@H](C(N)=O)[C@@H](C)CC)[C@@H](C)O)[C@@H](C)CC)[C@@H](C)CC` [L-6-C4] (Butyryl-LGIKILWSAYKHRKTI-NH2), the EC50 in assay [1] was > 10 µM. The EC50 in assay [2] was 0.11 µM. Further, in assay [3] (ATCC 29213, 20 h), the “S. aureus MBC” value was 25 µM and the “S. aureus MIC” value came to 12.5 µM. Besides, in the assay with E. coli (K-12 MG1655) (K-12, 20 h), the “E. coli MBC” value is on record as 25 µM and the “E. coli MIC” value came to 12.5 µM.

Regarding `CCCCCCCC(=O)N[C@@H](CC(C)C)C(=O)NCC(=O)N[C@H](C(=O)N[C@@H](CCCCN)C(=O)N[C@H](C(=O)N[C@@H](CC(C)C)C(=O)N[C@@H](Cc1c[nH]c2ccccc12)C(=O)N[C@@H](CO)C(=O)N[C@@H](C)C(=O)N[C@@H](Cc1ccc(O)cc1)C(=O)N[C@@H](CCCCN)C(=O)N[C@@H](Cc1c[nH]cn1)C(=O)N[C@@H](CCCNC(=N)N)C(=O)N[C@@H](CCCCN)C(=O)N[C@H](C(=O)N[C@H](C(N)=O)[C@@H](C)CC)[C@@H](C)O)[C@@H](C)CC)[C@@H](C)CC` [L-6-C8] (Octanoyl-LGIKILWSAYKHRKTI-NH2), the EC50 in assay [1] came to 0.94 µM. The EC50 in assay [2] was 0.19 µM. Further, in assay [3] (ATCC 29213, 20 h), the “S. aureus MBC” value turned out to be 3.1 µM and the “S. aureus MIC” value worked out at 3.1 µM. In the assay on E. coli (K-12 MG1655) (K-12, 20 h), the “E. coli MBC” value was 12.5 µM and the “E. coli MIC” value amounted to 12.5 µM.

Regarding `CCCCCCCCCC(=O)N[C@@H](CC(C)C)C(=O)NCC(=O)N[C@H](C(=O)N[C@@H](CCCCN)C(=O)N[C@H](C(=O)N[C@@H](CC(C)C)C(=O)N[C@@H](Cc1c[nH]c2ccccc12)C(=O)N[C@@H](CO)C(=O)N[C@@H](C)C(=O)N[C@@H](Cc1ccc(O)cc1)C(=O)N[C@@H](CCCCN)C(=O)N[C@@H](Cc1c[nH]cn1)C(=O)N[C@@H](CCCNC(=N)N)C(=O)N[C@@H](CCCCN)C(=O)N[C@H](C(=O)N[C@H](C(N)=O)[C@@H](C)CC)[C@@H](C)O)[C@@H](C)CC)[C@@H](C)CC` [L-6-C10] (Decanoyl-LGIKILWSAYKHRKTI-NH2), the EC50 in assay [1] came to 0.68 µM. Also, the EC50 in assay [2] turned out to be 1.1 µM. Further, in assay [3] (ATCC 29213, 20 h), the “S. aureus MBC” value was > 100 µM and the “S. aureus MIC” value was determined as 50 µM. In addition, in the assay on E. coli (K-12 MG1655) (K-12, 20 h), the “E. coli MBC” value is > 100 µM and the “E. coli MIC” value is > 100 µM.

For `CCCCCCCCCCCCCCC(=O)N[C@@H](CC(C)C)C(=O)NCC(=O)N[C@H](C(=O)N[C@@H](CCCCN)C(=O)N[C@H](C(=O)N[C@@H](CC(C)C)C(=O)N[C@@H](Cc1c[nH]c2ccccc12)C(=O)N[C@@H](CO)C(=O)N[C@@H](C)C(=O)N[C@@H](Cc1ccc(O)cc1)C(=O)N[C@@H](CCCCN)C(=O)N[C@@H](Cc1c[nH]cn1)C(=O)N[C@@H](CCCNC(=N)N)C(=O)N[C@@H](CCCCN)C(=O)N[C@H](C(=O)N[C@H](C(N)=O)[C@@H](C)CC)[C@@H](C)O)[C@@H](C)CC)[C@@H](C)CC` [L-6-C15] (Pentadecanoyl-LGIKILWSAYKHRKTI-NH2), the EC50 in assay [1] came to 0.87 µM. Moreover, in assay [2], the EC50 is 19.4 µM. In assay [3] (ATCC 29213, 20 h), the “S. aureus MBC” value is given as > 100 µM and the “S. aureus MIC” value is reported as > 100 µM. Moreover, in the assay on E. coli (K-12 MG1655) (K-12, 20 h), the “E. coli MBC” value was > 100 µM and the “E. coli MIC” value is > 100 µM.

In the case of Ac-ILWSAYKHR-NH2 [S2], in assay [3] (ATCC 29213, 20 h), the “S. aureus MBC” value was > 100 µM and the “S. aureus MIC” value is > 100 µM. For the same molecule, in the assay on E. coli (K-12 MG1655) (K-12, 20 h), the “E. coli MBC” value was > 100 µM and the “E. coli MIC” value is listed as > 100 µM.

As to Ac-KILWSAYKHR-NH2 [S1], in assay [3] (ATCC 29213, 20 h), the “S. aureus MBC” value is reported as > 100 µM and the “S. aureus MIC” value is > 100 µM. In the assay with E. coli (K-12 MG1655) (K-12, 20 h), the “E. coli MBC” value is > 100 µM and the “E. coli MIC” value is recorded as > 100 µM.

With Ac-LWSAYKHR-NH2 [S3], in assay [3] (ATCC 29213, 20 h), the “S. aureus MBC” value is listed as > 100 µM and the “S. aureus MIC” value is listed as > 100 µM. In the assay on E. coli (K-12 MG1655) (K-12, 20 h), the “E. coli MBC” value is listed as > 100 µM and the “E. coli MIC” value is on record as > 100 µM.

Regarding Ac-WSAYK-NH2 [S6], in assay [3] (ATCC 29213, 20 h), the “S. aureus MBC” value is > 100 µM and the “S. aureus MIC” value is > 100 µM. In the assay with E. coli (K-12 MG1655) (K-12, 20 h), the “E. coli MBC” value is recorded as > 100 µM and the “E. coli MIC” value was > 100 µM.

In the case of Ac-WSAYKH-NH2 [S5], in assay [3] (ATCC 29213, 20 h), the “S. aureus MBC” value was > 100 µM and the “S. aureus MIC” value is > 100 µM. Besides, in the assay with E. coli (K-12 MG1655) (K-12, 20 h), the “E. coli MBC” value is given as > 100 µM and the “E. coli MIC” value was > 100 µM.

Take Ac-WSAYKHR-NH2 [S4]: in assay [3] (ATCC 29213, 20 h), the “S. aureus MBC” value is > 100 µM and the “S. aureus MIC” value is given as > 100 µM. Further, in the assay with E. coli (K-12 MG1655) (K-12, 20 h), the “E. coli MBC” value is listed as > 100 µM and the “E. coli MIC” value is > 100 µM.

On to PEG800-LGIKILWSAYKHRKTI [L-6-Peg800], for which, in assay [3] (setting [4]), the “S. aureus MBC” value is listed as > 100 µM and the “S. aureus MIC” value was > 100 µM. In the assay with E. coli (K-12 MG1655) (setting [5]), the “E. coli MBC” value is listed as > 100 µM and the “E. coli MIC” value is > 100 µM.

In the case of “SVPTSVYTLGIKILWSAYKHRKTIEKSFNKGFYH [PLNC8 β, reference compound]”, the EC50 in assay [1] is 1.26 µM; in assay [2], 0.02 µM. In addition, the CF release in assay [2] (bacterial-mimicking liposomes, peptide 100 pM, after 60 min of incubation) was ~ 20%. Further, the “S. aureus MBC” value in assay [3] (Table 2, ATCC 29213, broth microdilution, 50:50 PBS/LB-broth, 20 h, 37 °C, 10 µl drops on LB-agar) was > 100 µM; in assay [3] (setting [4]) it was > 100 µM. The “S. aureus MIC” value in assay [3] (Table 2, ATCC 29213, broth microdilution, peptide in PBS, bacteria in LB-broth, 200 µL, 50:50 PBS/broth, ~5 × 10^5 CFU/ml, 20 h, 37 °C, repeated at least three times) is > 100 µM; in assay [3] (setting [4]), > 100 µM. Moreover, in the assay on E. coli (K-12 MG1655) (Table 2, K-12 MG1655, broth microdilution, 50:50 PBS/LB-broth, 200 µL, 20 h, 37 °C), the “E. coli MIC” value is given as > 100 µM. The “E. coli MBC” value is recorded as > 100 µM in the assay on E. coli (K-12 MG1655) (Table 2, K-12 MG1655, broth microdilution, 50:50 PBS/LB-broth, 20 h, 37 °C, 10 µl drops on LB-agar) and > 100 µM with E. coli (K-12 MG1655) (setting [5]).
